Test results published in patent US11098038B2, “Imidazole-based anticancer agents and derivatives thereof, and methods of making and using same” (The University of Toledo, priority 2017, dated 2021).

Experiments:
[1] = test system: PC-3; assay: NCI 60 screen, PC-3; assay type: cell-based; conditions: Homo sapiens, Prostatic
Method: (§1) The compounds synthesized were tested at the National Cancer Institute (NCI) for anti-proliferative activity in the 60 human tumor cell line assay.

[2] = test system: MOLT-4; assay: NCI 60 screen, MOLT-4; assay type: cell-based; conditions: Homo sapiens, Leukemia
Method: as §1

[3] = test system: A549/ATCC; assay: NCI 60 screen, A549/ATCC; assay type: cell-based; conditions: Homo sapiens, Non-Small Cell Lung
Method: as §1

[4] = test system: 786-0; assay: NCI 60 screen, 786-0; assay type: cell-based; conditions: Homo sapiens, Renal
Method: as §1

[5] = test system: NCI-460; assay: NCI 60 screen, NCI-460; assay type: cell-based; conditions: Homo sapiens, Non-Small Cell Lung
Method: as §1

[6] = test system: HOP-62; assay: NCI 60 screen, HOP-62; assay type: cell-based; conditions: Homo sapiens, Non-Small Cell Lung
Method: as §1

[7] = test system: MDA-MB-468; assay: NCI 60 screen, MDA-MB-468; assay type: cell-based; conditions: Homo sapiens, Breast
Method: as §1

[8] = test system: NCI-H226; assay: NCI 60 screen, NCI-H226; assay type: cell-based; conditions: Homo sapiens, Non-Small Cell Lung
Method: as §1

[9] = test system: SF-295; assay: NCI 60 screen, SF-295; assay type: cell-based; conditions: Homo sapiens, CNS
Method: as §1

[10] = test system: NCI-H23; assay: NCI 60 screen, NCI-H23; assay type: cell-based; conditions: Homo sapiens, Non-Small Cell Lung
Method: as §1

[11] = test system: HT29; assay: NCI 60 screen, HT29; assay type: cell-based; conditions: Homo sapiens, HT-29, Colon
Method: as §1

[12] = test system: HOP-92; assay: NCI 60 screen, HOP-92; assay type: cell-based; conditions: Homo sapiens, Non-Small Cell Lung
Method: as §1

[13] = test system: IGROV1; assay: NCI 60 screen, IGROV1; assay type: cell-based; conditions: Homo sapiens, IGROV-1, Ovarian
Method: as §1

[14] = test system: EKVX; assay: NCI 60 screen, EKVX; assay type: cell-based; conditions: Homo sapiens, Non-Small Cell Lung
Method: as §1

[15] = test system: HS 578T; assay: NCI 60 screen, HS 578T; assay type: cell-based; conditions: Homo sapiens, Breast
Method: as §1

[16] = test system: RXF393; assay: NCI 60 screen, RXF393; assay type: cell-based; conditions: Homo sapiens, RXF 393, Renal
Method: as §1

[17] = test system: K-562; assay: NCI 60 screen, K-562; assay type: cell-based; conditions: Homo sapiens, K562, Leukemia
Method: as §1

[18] = test system: SK-MEL-5; assay: NCI 60 screen, SK-MEL-5; assay type: cell-based; conditions: Homo sapiens, Melanoma
Method: as §1

[19] = test system: BT-549; assay: NCI 60 screen, BT-549; assay type: cell-based; conditions: Homo sapiens, Breast
Method: as §1

[20] = test system: SNB-75; assay: NCI 60 screen, SNB-75; assay type: cell-based; conditions: Homo sapiens, CNS
Method: as §1

[21] = test system: MDA-MB-435; assay: NCI 60 screen, MDA-MB-435; assay type: cell-based; conditions: Homo sapiens, Melanoma
Method: as §1

[22] = test system: NCI-H522; assay: NCI 60 screen, NCI-H522; assay type: cell-based; conditions: Homo sapiens, Non-Small Cell Lung
Method: as §1

[23] = test system: TK-10; assay: NCI 60 screen, TK-10; assay type: cell-based; conditions: Homo sapiens, Renal
Method: as §1

[24] = test system: UO-31; assay: NCI 60 screen, UO-31; assay type: cell-based; conditions: Homo sapiens, Renal
Method: as §1

[25] = test system: UACC-62; assay: NCI 60 screen, UACC-62; assay type: cell-based; conditions: Homo sapiens, Melanoma
Method: as §1

[26] = test system: SR; assay: NCI 60 screen, SR; assay type: cell-based; conditions: Homo sapiens, Leukemia
Method: as §1

[27] = test system: CCRF-CEM; assay: NCI 60 screen, CCRF-CEM; assay type: cell-based; conditions: Homo sapiens, Leukemia
Method: as §1

[28] = test system: MDA-MB-231/ATCC; assay: NCI 60 screen, MDA-MB-231/ATCC; assay type: cell-based; conditions: Homo sapiens, Breast
Method: as §1

[29] = test system: UACC-257; assay: NCI 60 screen, UACC-257; assay type: cell-based; conditions: Homo sapiens, Melanoma
Method: as §1

[30] = test system: SK-MEL-2; assay: NCI 60 screen, SK-MEL-2 (second line); assay type: cell-based; conditions: Homo sapiens; Melanoma, SK-MEL-2 (second of two lines so named, r38)
Method: as §1

[31] = test system: SN12C; assay: NCI 60 screen, SN12C; assay type: cell-based; conditions: Homo sapiens, Renal
Method: as §1

[32] = test system: OVCAR-5; assay: NCI 60 screen, OVCAR-5; assay type: cell-based; conditions: Homo sapiens, Ovarian
Method: as §1

[33] = test system: RPMI-8226; assay: NCI 60 screen, RPMI-8226; assay type: cell-based; conditions: Homo sapiens, Leukemia
Method: as §1

[34] = test system: SF-539; assay: NCI 60 screen, SF-539; assay type: cell-based; conditions: Homo sapiens, CNS
Method: as §1

[35] = test system: KM12; assay: NCI 60 screen, KM12; assay type: cell-based; conditions: Homo sapiens, Colon
Method: as §1

[36] = test system: SK-OV-3; assay: NCI 60 screen, SK-OV-3; assay type: cell-based; conditions: Homo sapiens, Ovarian
Method: as §1

[37] = test system: DU-145; assay: NCI 60 screen, DU-145; assay type: cell-based; conditions: Homo sapiens, Prostatic
Method: as §1

[38] = test system: NCI-322M; assay: NCI 60 screen, NCI-322M; assay type: cell-based; conditions: Homo sapiens, Non-Small Cell Lung
Method: as §1

[39] = test system: MALME-3M; assay: NCI 60 screen, MALME-3M; assay type: cell-based; conditions: Homo sapiens, Melanoma
Method: as §1

[40] = test system: OVCAR-3; assay: NCI 60 screen, OVCAR-3; assay type: cell-based; conditions: Homo sapiens, Ovarian
Method: as §1

[41] = test system: LOX IMVI; assay: NCI 60 screen, LOX IMVI; assay type: cell-based; conditions: Homo sapiens, Melanoma
Method: as §1

[42] = test system: COLO 205; assay: NCI 60 screen, COLO 205; assay type: cell-based; conditions: Homo sapiens, Colon
Method: as §1

[43] = test system: T-47D; assay: NCI 60 screen, T-47D; assay type: cell-based; conditions: Homo sapiens, T47D, Breast
Method: as §1

[44] = test system: SK-MEL-2; assay: NCI 60 screen, SK-MEL-2 (first line); assay type: cell-based; conditions: Homo sapiens; Melanoma, SK-MEL-2 (first of two lines so named, r37)
Method: as §1

[45] = test system: M14; assay: NCI 60 screen, M14; assay type: cell-based; conditions: Homo sapiens, Melanoma
Method: as §1

[46] = test system: HCT-116; assay: NCI 60 screen, HCT-116; assay type: cell-based; conditions: Homo sapiens, Colon
Method: as §1

[47] = test system: U251; assay: NCI 60 screen, U251; assay type: cell-based; conditions: Homo sapiens, U-251, CNS
Method: as §1

[48] = test system: HCC-2998; assay: NCI 60 screen, HCC-2998; assay type: cell-based; conditions: Homo sapiens, Colon
Method: as §1

[49] = test system: NCI/ADR-RES; assay: NCI 60 screen, NCI/ADR-RES; assay type: cell-based; conditions: Homo sapiens, Ovarian
Method: as §1

[50] = test system: SF-268; assay: NCI 60 screen, SF-268; assay type: cell-based; conditions: Homo sapiens, CNS
Method: as §1

[51] = test system: OVCAR-8; assay: NCI 60 screen, OVCAR-8; assay type: cell-based; conditions: Homo sapiens, Ovarian
Method: as §1

[52] = test system: HCT15; assay: NCI 60 screen, HCT15; assay type: cell-based; conditions: Homo sapiens, HCT-15, Colon
Method: as §1

[53] = test system: HL-60(TB); assay: NCI 60 screen, HL-60(TB); assay type: cell-based; conditions: Homo sapiens, Leukemia
Method: as §1

[54] = test system: MCF7; assay: NCI 60 screen, MCF7; assay type: cell-based; conditions: Homo sapiens, Breast
Method: as §1

[55] = test system: SW-620; assay: NCI 60 screen, SW-620; assay type: cell-based; conditions: Homo sapiens, Colon
Method: as §1

[56] = test system: ACHN; assay: NCI 60 screen, ACHN; assay type: cell-based; conditions: Homo sapiens, Renal
Method: as §1

[57] = test system: A498; assay: NCI 60 screen, A498; assay type: cell-based; conditions: Homo sapiens, Renal
Method: as §1

[58] = test system: SNB-19; assay: NCI 60 screen, SNB-19; assay type: cell-based; conditions: Homo sapiens, CNS
Method: as §1

[59] = test system: OVCAR-4; assay: NCI 60 screen, OVCAR-4; assay type: cell-based; conditions: Homo sapiens, Ovarian
Method: as §1

**Q.** With `Cn1ccnc1C(=O)/C=C/c1ccc(CC(=O)Nc2ccccc2)cc1` [Compound 27, (E)-2-(4-(3-(1-methyl-1H-imidazol-2-yl)-3-oxoprop-1-en-1-yl)phenyl)-N-phenylacetamide] as the molecule, how does the GI50 [1] read?
**A.** 3.29 µM

**Q.** What about the GI50 [2] of the same molecule?
**A.** 4.3 µM

**Q.** And the GI50 [3]?
**A.** 6.6 µM

**Q.** And the GI50 [4]?
**A.** 2.67 µM

**Q.** And the GI50 [5]?
**A.** 2.32 µM

**Q.** And the GI50 [6]?
**A.** 3.75 µM

**Q.** What about the GI50 [7] of the same molecule?
**A.** 1.71 µM

**Q.** What about the GI50 [8] of the same molecule?
**A.** 8.59 µM

**Q.** What about the GI50 [9] of the same molecule?
**A.** 5.44 µM

**Q.** And the GI50 [10]?
**A.** 3.24 µM

**Q.** And the GI50 [11]?
**A.** 2.4 µM

**Q.** And the GI50 [12]?
**A.** 6.63 µM

**Q.** What about the GI50 [13] of the same molecule?
**A.** 2.11 µM

**Q.** What about the GI50 [14] of the same molecule?
**A.** 6.28 µM

**Q.** And the GI50 [15]?
**A.** 1.42 µM

**Q.** What about the melting point of the same molecule?
**A.** 184 to 186 °C

**Q.** What about the GI50 [16] of the same molecule?
**A.** 3.86 µM

**Q.** What about the GI50 [17] of the same molecule?
**A.** 1.07 µM

**Q.** And the GI50 [18]?
**A.** 4.18 µM

**Q.** What about the GI50 [19] of the same molecule?
**A.** 2.95 µM

**Q.** What about the GI50 [20] of the same molecule?
**A.** 25 µM

**Q.** And the GI50 [21]?
**A.** 4.3 µM

**Q.** What about the GI50 [22] of the same molecule?
**A.** 3.2 µM

**Q.** And the GI50 [23]?
**A.** 7.44 µM

**Q.** And the GI50 [24]?
**A.** 2.77 µM

**Q.** And the GI50 [25]?
**A.** 4.13 µM

**Q.** And the GI50 [26]?
**A.** 1.16 µM

**Q.** What about the GI50 [27] of the same molecule?
**A.** 2.37 µM

**Q.** And the GI50 [28]?
**A.** 2.37 µM

**Q.** And the GI50 [29]?
**A.** 6.98 µM

**Q.** And the GI50 [30]?
**A.** 5.69 µM

**Q.** What about the GI50 [31] of the same molecule?
**A.** 3.84 µM

**Q.** What about the GI50 [32] of the same molecule?
**A.** 4.19 µM

**Q.** What about the GI50 [33] of the same molecule?
**A.** 1.45 µM

**Q.** What about the GI50 [34] of the same molecule?
**A.** 2.43 µM

**Q.** And the GI50 [35]?
**A.** 3.39 µM

**Q.** What about the GI50 [36] of the same molecule?
**A.** 9.3 µM

**Q.** And the GI50 [37]?
**A.** 1.1 µM

**Q.** What about the GI50 [38] of the same molecule?
**A.** 2.57 µM

**Q.** What about the GI50 [39] of the same molecule?
**A.** 5.93 µM

**Q.** And the GI50 [40]?
**A.** 1.87 µM

**Q.** What about the GI50 [41] of the same molecule?
**A.** 1.03 µM

**Q.** What about the GI50 [42] of the same molecule?
**A.** 3.77 µM

**Q.** What about the GI50 [43] of the same molecule?
**A.** 5.23 µM

**Q.** What about the GI50 [44] of the same molecule?
**A.** 5.06 µM

**Q.** And the GI50 [45]?
**A.** 4.55 µM

**Q.** What about the GI50 [46] of the same molecule?
**A.** 1.68 µM

**Q.** What about the GI50 [47] of the same molecule?
**A.** 1.57 µM

**Q.** And the GI50 [48]?
**A.** 4.42 µM

**Q.** And the GI50 [49]?
**A.** 7.54 µM

**Q.** What about the GI50 [50] of the same molecule?
**A.** 3.75 µM

**Q.** What about the GI50 [51] of the same molecule?
**A.** 6.44 µM

**Q.** And the GI50 [52]?
**A.** 1.25 µM

**Q.** And the GI50 [53]?
**A.** 1.57 µM

**Q.** What about the GI50 [54] of the same molecule?
**A.** 1.13 µM

**Q.** And the GI50 [55]?
**A.** 2.75 µM

**Q.** And the GI50 [56]?
**A.** 5.24 µM

**Q.** What about the GI50 [57] of the same molecule?
**A.** 6.08 µM

**Q.** What about the GI50 [58] of the same molecule?
**A.** 1.9 µM

**Q.** What about the GI50 [59] of the same molecule?
**A.** 4.12 µM
